Here are results for 14 compounds from patent publication US4252956A, “Derivatives of 1,4-dihydropyridine-3-carbothiol acids” (priority 1979, dated 1981).

Like-named read-outs stand apart in the source and are kept apart here.

For series [1], the system named is coronarodilating activity. The following applies: in vivo; cited from earlier work.
Another series has as its system coronary blood flow. Kind of series: recording the volume rate of coronary blood flow in experiments on narcotized cats (coronarodilating activity). Type of series: in vivo. Particulars: for ED (30-50%): Felis catus, iv, read-out: Dose increasing the coronary blood flow by 30-50%; for Duration of the effect: Table, at the dose increasing the coronary blood flow; for coronarodilating activity: narcotized cats.

The subject of a further series is white mice. Kind of series: in vivo.
A further series concerns arterial pressure. Kind of series: hypotensive effect (arterial pressure, heart activity). It is filed as in vivo. The following applies: for ED30: read-out: ED30 of the hypotensive effect.
A short description of a further series: in vivo. Particulars: mouse, in vivo, ip; white mice, intraperitoneal; read-out: LD50 for white mice upon intraperitoneal administration.
Where [2] appears, read: increase of coronary blood flow by 30-50%.

Description for arterial pressure: (§1) Tests of the compounds according to the present invention were performed in comparison with the prior art coronarodilating agents; carbocromene and ditrimine and with the prior art spasmolytic preparation-papaverine having a myotropic effect.
Description for coronary blood flow: as §1

As to `COC(=O)C1=C(C)NC(C)=C(C(=O)OC)C1c1ccccc1[N+](=O)[O-]` [2,6-dimethyl-3,5-dicarbometh-oxy-4-o-nitrophenyl-1,4-dihydropyridine], the “coronarodilating activity (prior art)” value in series [1] is “pronounced coronarodilating activity”.
As for `CCOC(=O)COc1ccc2c(C)c(CCN(CC)CC)c(=O)oc2c1` [Carbocromene, reference compound], the ED (30-50%) in the series on coronary blood flow (setting [2]) stood at 0.5 mg/kg.
In the case of `COc1cc(C(=O)OCCCN(C)CCN(C)CCCOC(=O)c2cc(OC)c(OC)c(OC)c2)cc(OC)c1OC` [Ditrimine, reference compound], the “Dose increasing the coronary blood flow by 30-50%” value in the series with coronary blood flow (setting [2]) is 0.5 mg/kg. Moreover, the “LD50 for white mice upon intraperitoneal administration” value in the series with white mice is 180 (149-218) mg/kg. In the series on arterial pressure (in vivo), the “ED30 of the hypotensive effect” value stood at 1.0 mg/kg.
Turning to `CCSC(=O)C1=C(C)NC(C)=C(C(=O)SCC)C1` [I, Di-S-ethyl ester of 2,6-dimethyl-1,4-dihydropyridine-3,5-dicarbothiol acid], the ED (30-50%) with coronary blood flow (setting [2]) amounted to 1 mg/kg. The “Duration of the effect” value in the series on coronary blood flow fell in the range of 60 to 90 min. Further, the LD50 in “in vivo” is more than 4000 mg/kg. In the series with arterial pressure, the ED30 was 1.8 mg/kg.
`CCSC(=O)C1=C(C)NC(C)=C(C(=O)SCC)C1c1cccnc1` [II, Di-S-ethyl ester of 2,6-dimethyl-4-m-pyridyl-1,4-dihydropyridine-3,5-dicarbothiol acid]: in the series on coronary blood flow (setting [2]), the ED (30-50%) was determined as 0.5 mg/kg. In the series with coronary blood flow, the “Duration of the effect” value was more than 120 min and the “coronarodilating activity” value is “most active”. Moreover, the ED30 in the series on arterial pressure came to 0.56 mg/kg.
The like results for `CCOC(=O)C1=C(C)NC(C)=C(C(=O)SCc2ccccc2)C1c1ccccc1` (centres unmarked) [III, 3-S-benzyl-5-ethyl ester of 4-phenyl-2,6-dimethyl-1,4-dihydropyridine-3-carbothiol-5-carboxylic acid] were, in that order, 0.5 mg/kg, 150 min, “most active” and 1.65 mg/kg.
`CCOC(=O)C1=C(C)NC(C)=C(C(=O)SCc2ccccc2)C1C` (centres unmarked) [IV, 3-S-benzyl-5-ethyl ester of 2,4,6-trimethyl-1,4-dihydropyridine-3-carbothiol-5-carboxylic acid]: in the series with coronary blood flow (setting [2]), the ED (30-50%) is 2 to 4 mg/kg. For the same compound, the “Duration of the effect” value with coronary blood flow was 30 to 60 min. The ED30 in the series on arterial pressure turned out to be 3.45 mg/kg.
Regarding `CCSC(=O)C1=C(C)NC2=C(C(=O)c3ccccc32)C1c1ccc([N+](=O)[O-])cc1` (centres unmarked) [IX, 2-methyl-3-ethyl-thiocarbonyl-4-p-nitrophenyl-5-oxo-1,4-dihydroindeno-(1,2-b)-pyridine], the ED (30-50%) in the series on coronary blood flow (setting [2]) stood at 3 mg/kg. In addition, the ED30 with arterial pressure was determined as 1 mg/kg.
Consider `COc1ccc(Cc2nccc3cc(OC)c(OC)cc23)cc1OC` [Papaverine, reference compound], for which, in the series with coronary blood flow, the ED (30-50%) amounted to 1 mg/kg and the “Duration of the effect” value was in the range of 10 to 20 min. The LD50 in “in vivo” was 91 mg/kg. For the same compound, the ED30 with arterial pressure is 0.27 mg/kg.
As for `CCSC(=O)C1=C(C)NC2=C(C(=O)c3ccccc32)C1c1ccccc1` (centres unmarked) [V, 2-methyl-3-ethylthiocarbonyl-4-phenyl-5-oxo-1,4-dihydroindeno-(1,2-b)-pyridine], the ED (30-50%) in the series on coronary blood flow (setting [2]) was determined as 3 mg/kg. In addition, the ED30 in the series with arterial pressure is 3 mg/kg.
For the compound `CC1=C(C(=O)SCc2ccccc2)C(c2ccccc2)C2=C(N1)c1ccccc1C2=O` (centres unmarked) [VI, 2-methyl-3-benzylthiocarbonyl-4-phenyl-5-oxo-1,4-dihydroindeno-(1,2-b)-pyridine], in the series on coronary blood flow, the ED (30-50%) was 0.3 mg/kg and the “coronarodilating activity” value is “most active”. Besides, the ED30 with arterial pressure amounted to 1 mg/kg.
For `CC1=C(C(=O)SCc2ccccc2)C(c2ccccc2O)C2=C(N1)c1ccccc1C2=O` (centres unmarked) [VII, 2-methyl-3-benzylthiocarbonyl-4-o-hydroxyphenyl-5-oxo-1,4-dihydroindeno-(1,2-b)-pyridine], in the series on coronary blood flow, the ED (30-50%) was 0.5 mg/kg and the “coronarodilating activity” value was “most active”. For the same compound, the ED30 with arterial pressure was 1 mg/kg.
As for `CCSC(=O)C1=C(C)NC2=C(C(=O)c3ccccc32)C1c1ccccc1O` (centres unmarked) [VIII, 2-methyl-3-ethylthiocarbonyl-4-o-hydroxyphenyl-5-oxo-1,4-dihydroindeno-(1,2-b)pyridine], the ED (30-50%) with coronary blood flow (setting [2]) came out at 3 mg/kg. In the series on arterial pressure, the ED30 turned out to be 5 mg/kg.
On to `CCSC(=O)C1=C(C)NC2=C(C(=O)c3ccccc32)C1c1ccccc1[N+](=O)[O-]` (centres unmarked) [X, 2-methyl-3-ethylthiocarbonyl-4-o-nitrophenyl-5-oxo-1,4-dihydroindeno-(1,2-b)-pyridine], for which, in the series on coronary blood flow (setting [2]), the ED (30-50%) is 3 mg/kg. Besides, the LD50 in the series “in vivo” was more than 2000 mg/kg.
